Assay results taken from ChEMBL document CHEMBL5376009 (RSC Med Chem, 2024).

Assays:
Influenza A virus [1] = assay: Antiviral activity against influenza A virus H1N1, A/PR/8/34; type: functional, organism-based
Influenza A virus [2] = assay: Antiviral activity against influenza A virus H1N1, A/California/7/2009; type: functional, organism-based
Influenza A virus [3] = assay: Antiviral activity against influenza A virus […], A/WSN/33; type: functional, organism-based
[4] = Cytotoxicity against MDCK cells assessed as reduction in cell viability; type: toxicity, cell-based, Canis lupus familiaris; conditions: dog
[5] = Cytotoxicity against human A549 cells incubated for 48 hrs by neutral red uptake assay; type: toxicity, cell-based
Influenza A virus [6] = assay: Antiviral activity against Influenza A virus A/PR/8/34 (H1N1) infected in human A549 cells pretreated with cell for 3 hrs followed by viral infection and measured for 24 hrs; type: functional, organism-based
Influenza A virus [7] = assay: Antiviral activity against influenza A virus A/WSN/1933 (H1N1) infected in HEK293T cells assessed as reduction in cytopathic effect incubated for 24 hrs; type: functional, organism-based; conditions: HEK-293T
[8] = Cytotoxicity against MDCK cells assessed as reduction in cell viability measured after 48 hrs by CCK-8 assay; type: toxicity, cell-based, Canis lupus familiaris; conditions: dog
Influenza B virus [9] = assay: Antiviral activity against influenza B virus infected in HEK293T cells assessed as reduction in cytopathic effect incubated for 24 hrs; type: functional, organism-based; conditions: HEK-293T
Influenza A virus [10] = assay: Antiviral activity against influenza A virus A/duck/Hokkaido/Vac-3/2007 (H5N1) infected in MDCK cells assessed as reduction in cytopathic effect incubated for 48 hrs by crystal violet staining based plaque assay; type: functional, organism-based
Influenza A virus [11] = assay: Antiviral activity against influenza A virus A/Sydney/5/1997 (H3N2) infected in MDCK cells assessed as reduction in cytopathic effect incubated for 48 hrs by crystal violet staining based plaque assay; type: functional, organism-based
[12] = Cytotoxicity against MDCK cells assessed as reduction in cell viability measured after 48 hrs by WST-1 assay; type: toxicity, cell-based, Canis lupus familiaris; conditions: dog
Influenza A virus [13] = assay: Antiviral activity against influenza A virus A/WSN/33 (H1N1) infected in MDCK cells assessed as reduction in cytopathic effect incubated for 48 hrs by crystal violet staining based plaque assay; type: functional, organism-based
Influenza A virus [14] = assay: Antiviral activity against influenza A virus A/PuertoRico/8/1934 (H1N1) infected in MDCK cells assessed as reduction in cytopathic effect incubated for 48 hrs by crystal violet staining based plaque assay; type: functional, organism-based
Influenza A virus [15] = assay: Antiviral activity against influenza A virus H5N1,A/Vietnam/1194/2004 infected in MDCK cells assessed as reduction in plaque formation incubated for 72 hrs by crystal violet staining based analysis; type: functional, organism-based; conditions: H5N1,A/Vietnam/1194/2004, MDCK
[16] = Cytotoxicity against MDCK cells assessed as reduction in cell viability measured after 72 hrs by MTT assay; type: toxicity, cell-based, Canis lupus familiaris; conditions: dog
Influenza A virus [17] = assay: Antiviral activity against influenza A virus H1N1,A/WSN/1933 infected in MDCK cells assessed as reduction in plaque formation incubated for 72 hrs by crystal violet staining based analysis; type: functional, organism-based; conditions: H1N1,A/WSN/1933, MDCK
[18] = Cytotoxicity against MDCK cells; type: toxicity, cell-based, Canis lupus familiaris; conditions: dog
Influenza A virus [19] = assay: Antiviral activity against Influenza A virus A (H1N1); type: functional, organism-based
Influenza A virus [20] = assay: Antiviral activity against influenza A virus A/WSN/1933 (H1N1) infected in MDCK cells assessed as reduction in cytopathic effect by fluorescence based analysis; type: functional, organism-based
[21] = Cytotoxicity against MDCK cells assessed as reduction in cell viability measured after 72 hrs by fluorescence based assay; type: toxicity, Canis lupus familiaris; conditions: dog
[22] = Cytotoxicity against MDCK cell incubated for 72 hrs by EZ-Cytox cell viability assay; type: toxicity, cell-based, Canis lupus familiaris; conditions: dog, MDCK cells
Influenza A virus [23] = assay: Antiviral activity against Influenza A virus A/Perth/16/2009 (H3N2) infected in MDCK cells measured after 24 hrs post infection; type: functional, organism-based
Influenza B virus [24] = assay: Antiviral activity against influenza B virus B/Florida/04/2006 infected in MDCK cells measured after 24 hrs post infection; type: functional, organism-based; conditions: B/Florida/04/2006, MDCK
Influenza A virus [25] = assay: Antiviral activity against Influenza A virus A/California/7/2009 (H1N1) infected in MDCK cells measured after 24 hrs post infection; type: functional, organism-based
Influenza B virus [26] = assay: Antiviral activity against Influenza B virus B/Yamagata; type: functional, organism-based
Influenza B virus [27] = assay: Antiviral activity against Influenza B virus B/Victoria; type: functional, organism-based
Influenza A virus [28] = assay: Antiviral activity against Influenza A virus A/Brisbane/10/2007 (H3N2); type: functional, organism-based
Influenza A virus [29] = assay: Antiviral activity against Influenza A virus A/PR/8/34 (H1N1); type: functional, organism-based

CC(=O)c1cc(O)ccc1O[C@@H]1O[C@H](COC(=O)c2cc(O)c(O)c(O)c2)[C@@H](O)[C@H](OC(=O)c2cc(O)c(O)c(O)c2)[C@H]1O
EC50 (Influenza A virus [1]): 20.2 µM
EC50 (Influenza A virus [2]): 29.2 µM
EC50 (Influenza A virus [3]): 11.6 µM
CC50 [4]: 964 µM

O=C(CSc1nnnn1-c1ccccc1)NCc1ccccc1
CC50 at 48 h [5]: > 150 µM
EC50 (Influenza A virus [6]): 46.4 µM

C/C(=C\CC/C(C)=C/C[C@]1(O)C(=O)c2c(O)cc(C)c3c(O)c(C)c(O)c(c23)C1=O)CC/C=C(\CO)CC[C@@H](O)C(C)(C)O
EC50 (Influenza A virus [7]): 0.28 µM
CC50 at 48 h [8]: > 100 µM
EC50 (Influenza B virus [9]): 1.22 µM

OC(CN1CCCCC1)Cn1c2c(c3ccccc31)CCCC2 (stereo unspecified)
EC50 (Influenza A virus [10]): 39.8 µM
EC50 (Influenza A virus [11]): 44.7 µM
CC50 at 48 h [12]: > 200 µM
EC50 (Influenza A virus [13]): 35.6 µM
EC50 (Influenza A virus [14]): 30.7 µM

Cc1cc(C(=O)NC(C)C23CC4CC(CC(C4)C2)C3)c(C)o1 (stereo unspecified)
EC50 (Influenza A virus [15]): 0.08 µM
CC50 at 72 h [16]: 73 µM
EC50 (Influenza A virus [17]): 0.069 µM

C=C1Cc2cc(C(F)(F)F)ccc2C(=O)NCC(C)/C(=N/OC)CCCCOC1=O (stereo unspecified)
CC50 [18]: > 100 µM
EC50 (Influenza A virus [19]): 0.57 µM

CN(C)S(=O)(=O)N1CCCC(CNC(=O)c2cccc(C(F)(F)F)c2)C1 (stereo unspecified)
EC50 (Influenza A virus [20]): 0.28 µM
CC50 at 72 h [21]: > 100 µM

CCc1ccc(NC(=O)COC(=O)c2ccc3ccccc3n2)cc1
CC50 at 48 h [5]: > 400 µM
EC50 (Influenza A virus [6]): 51.6 µM

COc1ccccc1-c1cc2c(Nc3ccccc3)nccc2n1C
CC50 at 72 h [22]: 27.2 µM
EC50 (Influenza A virus [23]): 8.29 µM
EC50 (Influenza B virus [24]): 12.9 µM
EC50 (Influenza A virus [25]): 1.17 µM

COc1cccc(OC)c1C(=O)/C=C/c1nc(C)c(C)nc1C
EC50 (Influenza B virus [26]): 2.41 µM
CC50 [18]: 41.5 µM
EC50 (Influenza B virus [27]): 3.13 µM
EC50 (Influenza A virus [28]): 3.44 µM
EC50 (Influenza A virus [29]): 2.74 µM

NC(=O)c1nc(F)cnc1O [FAVIPIRAVIR]
EC50 (Influenza A virus [1]): 37.4 µM
EC50 (Influenza A virus [2]): 37.4 µM
EC50 (Influenza A virus [3]): 37.4 µM
CC50 [4]: > 1000 µM
